Measurements reported in patent publication US12077503B2, “Substituted cyclic amides and their use as herbicides” (FMC CORPORATION, priority 2015, dated 2024).

Key:
Format in all cases: in vivo
Kochia (Kochia scoparia) [1] = assay: Test A preemergence; details: Bassia scoparia, pre-emergence, 240 h
Method in brief: (§1)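 Ratings of 0 (no effect) to 100 (complete control) come from visual comparison with untreated controls roughly 10 d after treatment. Test chemicals, formulated in a non-phytotoxic solvent mixture with surfactant, were applied either as a preemergence directed soil spray on seeded soil or postemergence to one- to two-leaf plants 2 to 10 cm tall.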

[2] = tested on: barnyardgrass (Echinochloa crus-galli); assay: Test A preemergence; details: Echinochloa crus-galli, pre-emergence, 240 h
Method in brief: as §1

[3] = tested on: pigweed (Amaranthus retroflexus); assay: Test A preemergence; details: Amaranthus retroflexus, pre-emergence, 240 h
[4] = tested on: ragweed (common ragweed, Ambrosia elatior); assay: Test A preemergence; details: Ambrosia artemisiifolia, pre-emergence, 240 h
Method in brief: as §1

[5] = tested on: ryegrass, Italian (Italian ryegrass, Lolium multiflorum); assay: Test A preemergence; details: Lolium multiflorum, pre-emergence, 240 h
Method in brief: as §1

[6] = tested on: Galium (catchweed bedstraw, Galium aparine); assay: Test A postemergence; details: Galium, post-emergence, 240 h, 125 g ai/ha, postemergence, visual injury rating after approximately 10 d; read-out: Galium plant response rating (0 to 100 scale, 0 no effect, 100 complete control)
Method in brief: as §1

Kochia (Kochia scoparia) [7] = assay: Test A postemergence; details: Bassia scoparia, post-emergence, 240 h, 125 g ai/ha, postemergence, visual injury rating after approximately 10 d; read-out: Kochia plant response rating (0 to 100 scale, 0 no effect, 100 complete control)
Method in brief: as §1

[8] = tested on: barnyardgrass (Echinochloa crus-galli); assay: Test A postemergence; details: Echinochloa crus-galli, post-emergence, 240 h, 125 g ai/ha, postemergence, visual injury rating after approximately 10 d; read-out: Barnyardgrass plant response rating (0 to 100 scale, 0 no effect, 100 complete control)
Method in brief: as §1

[9] = tested on: blackgrass (Alopecurus myosuroides); assay: Test A postemergence; details: Alopecurus myosuroides, post-emergence, 240 h, 125 g ai/ha, postemergence, visual injury rating after approximately 10 d; read-out: Blackgrass plant response rating (0 to 100 scale, 0 no effect, 100 complete control)
Method in brief: as §1

corn (Zea mays) = assay: Test A postemergence; details: Zea mays, post-emergence, 240 h, 125 g ai/ha, postemergence, visual injury rating after approximately 10 d; read-out: Corn plant response rating (0 to 100 scale, 0 no effect, 100 complete control)
Method in brief: as §1

[10] = tested on: giant foxtail (Setaria faberii); assay: Test A postemergence; details: Setaria faberi, post-emergence, 240 h, 125 g ai/ha, postemergence, visual injury rating after approximately 10 d; read-out: Foxtail, Giant plant response rating (0 to 100 scale, 0 no effect, 100 complete control)
Method in brief: as §1

[11] = tested on: pigweed (Amaranthus retroflexus); assay: Test A postemergence; details: Amaranthus retroflexus, post-emergence, 240 h, 125 g ai/ha, postemergence, visual injury rating after approximately 10 d; read-out: Pigweed plant response rating (0 to 100 scale, 0 no effect, 100 complete control)
Method in brief: as §1

[12] = tested on: ragweed (common ragweed, Ambrosia elatior); assay: Test A postemergence; details: Ambrosia artemisiifolia, post-emergence, 240 h, 125 g ai/ha, postemergence, visual injury rating after approximately 10 d; read-out: Ragweed plant response rating (0 to 100 scale, 0 no effect, 100 complete control)
Method in brief: as §1

[13] = tested on: ryegrass, Italian (Italian ryegrass, Lolium multiflorum); assay: Test A postemergence; details: Lolium multiflorum, post-emergence, 240 h, 125 g ai/ha, postemergence, visual injury rating after approximately 10 d; read-out: Ryegrass, Italian plant response rating (0 to 100 scale, 0 no effect, 100 complete control)
Method in brief: as §1

[14] = tested on: wheat (Triticum aestivum); assay: Test A postemergence; details: Triticum aestivum, post-emergence, 240 h, 125 g ai/ha, postemergence, visual injury rating after approximately 10 d; read-out: Wheat plant response rating (0 to 100 scale, 0 no effect, 100 complete control)
Method in brief: as §1

## COc1c(F)ccc([C@H]2CN(C)C(=O)[C@@H]2C(=O)Nc2ccccc2C(F)(F)F)c1Cl [Compound 896]
Kochia (Kochia scoparia) [1]; 125 g ai/ha, preemergence, 0 to 100 scale where 0 is no effect and 100 is complete control, read-out: Kochia plant response rating
  pest or weed control at 125 g/ha: 30%
Kochia (Kochia scoparia) [1]; 500 g ai/ha, Preemergence, visual injury vs untreated controls after approximately 10 d, read-out: Kochia plant response rating (0 to 100 scale where 0 is no effect and 100 is complete control)
  pest or weed control at 500 g/ha: 50%
[2]; 125 g ai/ha, preemergence, 0 to 100 scale where 0 is no effect and 100 is complete control, read-out: Barnyardgrass plant response rating
  pest or weed control at 125 g/ha: 90%
[2]; 500 g ai/ha, Preemergence, visual injury vs untreated controls after approximately 10 d, read-out: Barnyardgrass plant response rating (0 to 100 scale where 0 is no effect and 100 is complete control)
  pest or weed control at 500 g/ha: 90%
[3]; 125 g ai/ha, preemergence, 0 to 100 scale where 0 is no effect and 100 is complete control, read-out: Pigweed plant response rating
  pest or weed control at 125 g/ha: 20%
[3]; 500 g ai/ha, Preemergence, visual injury vs untreated controls after approximately 10 d, read-out: Pigweed plant response rating (0 to 100 scale where 0 is no effect and 100 is complete control)
  pest or weed control at 500 g/ha: 40%
[4]; 125 g ai/ha, preemergence, 0 to 100 scale where 0 is no effect and 100 is complete control, read-out: Ragweed plant response rating
  pest or weed control at 125 g/ha: 0%
[4]; 500 g ai/ha, Preemergence, visual injury vs untreated controls after approximately 10 d, read-out: Ragweed plant response rating (0 to 100 scale where 0 is no effect and 100 is complete control)
  pest or weed control at 500 g/ha: 0%
[5]; 125 g ai/ha, preemergence, 0 to 100 scale where 0 is no effect and 100 is complete control, read-out: Ryegrass, Italian plant response rating
  pest or weed control at 125 g/ha: 40%
[5]; 500 g ai/ha, Preemergence, visual injury vs untreated controls after approximately 10 d, read-out: Ryegrass, Italian plant response rating (0 to 100 scale where 0 is no effect and 100 is complete control)
  pest or weed control at 500 g/ha: 70%
[6]
  pest or weed control at 125 g/ha: 40%
Kochia (Kochia scoparia) [7]
  pest or weed control at 125 g/ha: 20%
[8]
  pest or weed control at 125 g/ha: 90%
[9]
  pest or weed control at 125 g/ha: 40%
Corn (Zea mays)
  plant injury at 125 g/ha: 20%
[10]
  pest or weed control at 125 g/ha: 90%
[11]
  pest or weed control at 125 g/ha: 20%
[12]
  pest or weed control at 125 g/ha: 0%
[13]
  pest or weed control at 125 g/ha: 50%
[14]
  plant injury at 125 g/ha: 30%
